Results published in the NIST ThermoML archive (doi:10.1021/je8002207).
Numbers after ± are expanded uncertainties.

What was measured:
[1] = Crystal; DTA
[2] = Molar enthalpy of transition or fusion; conditions: Crystal; DSC

With `CN[C@@]1(c2ccccc2Cl)CCCCC1=O` [(R)-ketamine] the Normal melting temperature [1] was 121.0 ± 0.5 °C and the “Molar enthalpy of transition or fusion” value [2] was 6.86 ± 0.198 kcal/mol.

For `CN[C@]1(c2ccccc2Cl)CCCCC1=O` [(S)-ketamine], the Normal melting temperature [1] was 121.0 ± 0.5 °C and the “Molar enthalpy of transition or fusion” value [2] was 6.86 ± 0.198 kcal/mol.
